The target of assay [1] is T1, MtCPA (Medicago truncatula, UniProt G7ITU5).
T1 construct: gene MTR_2g086600; recombinant in E. coli BL21 Gold (pMCSG68); His6 tag cut by TEV, N-terminal Ser-Asn-Ala linker remains; homooctamer, active site fenced by dimer mate
The experiment in a line: X-ray crystallography of complex, […] Å. It counts as binding. Particulars: covalent; bound to Cys158 in active site; formed in crystal from 10 mM putrescine (probably with CO2), pH 7.0.

For assay [2], the target named is N-carbamoylputrescine amidohydrolase from Medicago truncatula (MtCPA), wild type (Medicago truncatula). Description: crystal structure; hanging drop, 20% PEG3350, 8% Tacsimate pH 7.0 (with or without 10% glycerol); space group P2(1)2(1)2, two octamers in the asymmetric unit; data at 100 K.
Assay [3] has as its target T1, MtCPA. Description: X-ray crystallography of complex, […] Å. It counts as binding. Particulars: cocrystallized with 17 mM cadaverine, pH 7.0; active site, non-covalent.
For assay [4], the target named is MtCPA-C158S mutant (Medicago truncatula). The experiment in a line: crystal structure; hanging drop, 20% PEG3350, 8% Tacsimate pH 7.0 (with or without 10% glycerol); space group P2(1)2(1)2, two octamers in the asymmetric unit; data at 100 K.
Assay [5] addresses T2, MtCPA (Medicago truncatula, UniProt G7ITU5, C158S).
T2 construct: gene MTR_2g086600; recombinant in E. coli BL21 Gold (pMCSG68); His6 tag cut by TEV, N-terminal Ser-Asn-Ala linker remains; homooctamer, active site fenced by dimer mate
T2 sequence (G7ITU5 1-301 C158S): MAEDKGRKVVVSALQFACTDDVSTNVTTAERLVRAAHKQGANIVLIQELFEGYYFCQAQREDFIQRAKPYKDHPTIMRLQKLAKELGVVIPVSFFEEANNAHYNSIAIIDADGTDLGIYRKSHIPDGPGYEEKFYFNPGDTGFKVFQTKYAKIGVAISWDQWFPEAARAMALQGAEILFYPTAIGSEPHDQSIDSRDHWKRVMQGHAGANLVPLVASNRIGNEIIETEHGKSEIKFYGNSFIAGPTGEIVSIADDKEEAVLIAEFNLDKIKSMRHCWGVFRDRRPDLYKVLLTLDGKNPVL
The experiment in a line: X-ray crystallography of complex, […] Å. It counts as binding. As to conditions: cocrystallized with 10 mM putrescine, pH 7.0; active site, non-covalent.

T1 sequence (G7ITU5 entry or part of it): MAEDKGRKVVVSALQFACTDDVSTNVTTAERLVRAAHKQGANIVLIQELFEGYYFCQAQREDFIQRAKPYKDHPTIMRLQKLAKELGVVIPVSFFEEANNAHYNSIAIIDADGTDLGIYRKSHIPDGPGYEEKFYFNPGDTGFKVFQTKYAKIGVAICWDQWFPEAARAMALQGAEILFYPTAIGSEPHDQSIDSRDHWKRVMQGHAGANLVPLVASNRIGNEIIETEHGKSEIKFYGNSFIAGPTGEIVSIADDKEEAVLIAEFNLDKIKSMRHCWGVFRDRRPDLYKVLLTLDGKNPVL

Regarding `NCCCCNC(O)O` [DHMP, N-(dihydroxymethyl)putrescine], at MtCPA [1], the “X-ray crystallography of complex, 1.97 Å” value is “DHMP was covalently bound to the catalytic Cys158”. Usually stoichiometry N stands for a count of units in the complex or per binding partner. Turning to “N-carbamoylputrescine amidohydrolase from Medicago truncatula (MtCPA), wild type (enzyme)”, in assay [2], the stoichiometry N worked out at 8. As for `NCCCCCN` [CAD, 1,5-diaminopentane], the “X-ray crystallography of complex, 2.19 Å” value at MtCPA [3] was “we do indeed observe CAD in the active site”. In turn, MtCPA-C158S mutant (enzyme) came in with a stoichiometry N in assay [4] of 8.

For the compound `NCCCCN` [PUT, 1,4-diaminobutane], the “X-ray crystallography of complex, 2.29 Å” value on MtCPA [5] is listed as “MtCPA-C158S mutant cocrystallized with PUT clearly shows the ligand without any modifications”.

Values taken from PMC4812014, “Structural Investigations of N-carbamoylputrescine Amidohydrolase from Medicago truncatula: Insights into the Ultimate Step of Putrescine Biosynthesis in Plants” (Frontiers in Plant Science, 2016).
